Test results taken from publication PMC7561186, “Rational design of balanced dual-targeting antibiotics with limited resistance” (PLoS Biology, 2020).
Values after ≈ are worked out from the molar mass of the structure shown. Values joined by “and” are separate entries in the source; they are usually repeats but may differ in a detail not shown here. Equal values may be shown once.

Tests used:
[1] = test system: S. aureus; experiment: pH-dependent MIC determination; type: cell-based; conditions: for MIC: Staphylococcus aureus
Method: MICs were determined using a standard serial broth microdilution technique according to the CLSI guidelines. Briefly, bacterial strains were inoculated onto MHBII agar plates and were grown overnight at 37 °C. Next, 3 individual colonies from each strain were inoculated into 1 mL MHBII medium and propagated at 37 °C, 250 rpm overnight. In the cases of Enterococcus and Streptococcus sp., cells were plated to BHI agar plates, and BHI broth was used to determine MICs. […] Following dilutions, each well was seeded with 5×10^4 bacterial cells. All measurements were performed in 3 parallel replicates and to avoid possible edge effects in microwell plates, side rows (A and H) were filled with sterile medium. Following inoculations, plates were covered with lids and wrapped in polyethylene plastic bags to minimize evaporation but allow for O2 transfer. Plates were incubated at 37 °C under continuous shaking at 150 rpm for 18 hours. After incubation, OD600 of each well was measured using a BioTek Synergy 2 microplate reader.

[2] = test system: S. aureus ATCC 700699 VISA; experiment: Time-dependent killing; type: cell-based; conditions: for Time-kill bacterial count: 10xMIC; for Colony numbers: time-kill raw counts, Samples 1-3
Method: Time-dependent killing experiments were performed as previously. S. aureus ATCC 700699 VISA cells were inoculated to MHBII agar plates and grown overnight at 37 °C. Next, 3 independent stationer-phase starter cultures were grown at 37 °C, 250 rpm overnight, in 3 × 1 mL MHBII broth. Next, 100-fold diluted cultures were prepared from each in 20 mL fresh MHBII medium and grown at 37 °C, 250 rpm until early exponential phase (OD600 = 0.3–0.4; i.e., 5 × 10^5 cells/mL). […] Cells were treated with antibiotics in Erlenmeyer flasks at 37 °C, 150 rpm for 48 hours. […] Next, 50 μL from each dilution were plated on MHBII agar plates, and plates were incubated overnight at 37 °C to calculate CFU per mL.

[3] = test system: S. aureus clinical isolates; experiment: microbe, parasite or virus in culture; type: cell-based; conditions: Staphylococcus aureus
[4] = test system: S. aureus USA300 (MRSA) BAA1556, S. aureus (VRSA) ECL2963646, S. aureus Mu50 (VISA) ATCC 700699; experiment: S. aureus dermal infection model; type: in vivo, ICR mice; conditions: 2% treatment, individual animals
Method: The testing strains, S. aureus USA300 (MRSA) BAA1556, S. aureus (VRSA) ECL2963646, and S. aureus Mu50 (VISA) ATCC 700699 were obtained from frozen stocks and thawed at room temperature. Next, an aliquot of 0.2 mL from each stock was transferred to 20 mL BHI broth and incubated at 37 °C with shaking (120 rpm) for 8 hours. Cells in 20 mL culture were pelleted by centrifugation, 3,500g for 15 minutes, and then resuspended in 10 mL cold PBS, then cells were diluted in PBS to obtain the inoculum sizes of 1×10^5 or 1× 10^6 CFU/mL, based on the testing strain’s virulence. In all cases, the actual colony counts were determined by plating dilutions in at least 3 replicates onto MHBII agar plates followed by 24 hours’ incubation and colony counting.
For dermal infections, groups of 5 female ICR mice weighing 24 ± 4 g, provided by BioLasco Taiwan (under a Charles River Laboratories Technology Licensee), were used. Animals were acclimated for 3 days prior to use and were confirmed to be in good health. Prior to infection, animals were anesthetized with etomidate-lipuro emulsion (20 mg /10 mL) at 20 mg/kg by IV injection, and then the fur on the back was removed by an electric shaver, and the epidermal layer was disrupted with an abrasive paper according to the protocol developed by Kugelberg and colleagues. Mice were inoculated topically on the wound area with testing strain suspension, 5 μL/mouse. The target inoculation densities were 1×10^5 or 1× 10^6 CFU/mL, based on the corresponding strain’s virulence. Following infection, animals were housed separately. […] Test articles were administered topically (20 μL/mouse) twice daily. One no-treatment group was euthanized at 1 hour after infection for initial bacterial counts, and the other treatment groups were dosed twice daily with the test compounds and sacrificed either at 25 hours or at 73 hours postinfection. Animals were euthanized with CO2 asphyxiation and the infected skin, a 2 cm^2 area, was excised. The skin samples of the wound infection (around 2 cm^2 areas) were then homogenized in 1 mL PBS (pH 7.4) with a polytron homogenizer. A 0.1 mL aliquot of each homogenate was used for serial 10-fold dilutions and plated onto MHBII agar plates for bacterial enumeration. Statistical significance (P <0.05) was assessed with 1-way ANOVA followed by Dunnett’s method. A significant (P <0.05) decrease in the bacterial counts of the treated animals compared with the vehicle control group was considered significant antimicrobial activity.

[5] = test system: human red blood cells; experiment: Haemolysis analysis; conditions: human red blood cells, 50 µg/mL, positive control
Method: Next, 600 μl of this EDTA-treated blood was washed in TBS buffer (10 mM TRIS, 150 mM NaCl [pH 7.2]) and centrifuged at 1,500 g for 1 minute until the supernatant became colorless. The aliquot of the final pellet (200 μL) was diluted to 5 mL with TBS buffer. […] Next, 100 μL of red blood cell suspension was pipetted into sterile Eppendorf tubes together with 100 μL of 2-fold serial dilution of the compounds (final concentration ranged between 100 μg/mL–0.1 μg/mL in a final volume of 200 μL). The plate was incubated for one hour at 37 °C followed by centrifugation at 1,500 g for 1 minute to sediment all red blood cells. Next, all supernatants were subjected to LDH and Haemolysis-Icterus-Lipaemia (HIL) index determination on a Roche Modular P800 analyzer according to the manufacturer’s instructions. After completion of this step the rest of the supernatants were transferred to sterile 96-well plates for the measurement of their optical density at 560-nm wavelength (in a Multiskan FC microplate reader, Thermo Scientific). Melittin (Bachem) at a concentration of 50 μg/mL, and TBS and 10% DMSO/TBS were served as positive (100% hemolysis) and negative (no hemolysis) controls, respectively.

[6] = S. aureus ATCC 43300 (MRSA), pH 5.5
[7] = S. aureus ATCC 43300 (MRSA), pH 7.3
[8] = S. aureus ATCC 700699 (VISA), pH 5.5
[9] = S. aureus ATCC 700699 (VISA), pH 7.3

Molecule: Nc1nc(-n2cc(C(=O)O)c(=O)c3cc(F)c(N4CC(O)C4)c(Cl)c32)c(F)cc1F [Delafloxacin]
- MIC [1, 6]: 0.0005 µg/mL
- MIC [1, 7]: 0.004 µg/mL
- MIC [1, 8]: 0.032 µg/mL
- MIC [1, 9]: 1 µg/mL

Molecule: CN[C@H](CC(C)C)C(=O)N[C@H]1C(=O)N[C@@H](CC(N)=O)C(=O)N[C@H]2C(=O)N[C@H]3C(=O)N[C@H](C(=O)N[C@H](C(=O)O)c4cc(O)cc(O)c4-c4cc3ccc4O)[C@H](O)c3ccc(c(Cl)c3)Oc3cc2cc(c3O[C@@H]2O[C@H](CO)[C@@H](O)[C@H](O)[C@H]2O[C@H]2C[C@](C)(N)[C@H](O)[C@H](C)O2)Oc2ccc(cc2Cl)[C@H]1O [Vancomycin]
- Time-kill bacterial count ([2]; time 0 hour): 2.80E+05
- Time-kill bacterial count ([2]; time 3 hour): 8.40E+04
- Time-kill bacterial count ([2]; time 6 hour): 3.30E+04
- Time-kill bacterial count ([2]; time 12 hour): 1.30E+03
- Time-kill bacterial count ([2]; time 18 hour): 3.80E+03
- Time-kill bacterial count ([2]; time 24 hour): 1.60E+02
- Time-kill bacterial count ([2]; time 48 hour): 5.30E+01
- Colony numbers ([2]; time 0 h, Dilution 100): 145 and 132 and 137
- Colony numbers ([2]; time 3 h, Dilution 100): 48 and 36 and 42
- Colony numbers ([2]; time 6 h, Dilution 100): 20 and 13 and 16
- Colony numbers ([2]; time 12 h, Dilution 10): 8 and 7 and 4
- Colony numbers ([2]; time 18 h, Dilution 1): 231 and 176 and 163
- Colony numbers ([2]; time 24 h, Dilution 0.5): 17 and 12 and 18
- MIC ([3]; ATCC 29213 / MSSA): 1 µg/mL (≈ 0.69 µM)
- MIC ([3]; MRSA): 1 µg/mL (≈ 0.69 µM)
- MIC ([3]; MRSA / NRS 3 / VISA): 8 µg/mL (≈ 5.52 µM)
- MIC ([3]; MRSA / NRS 4 / VISA): 4 µg/mL (≈ 2.76 µM)
- MIC ([3]; MRSA / NRS 18 / VISA): 8 µg/mL (≈ 5.52 µM)
- MIC ([3]; MRSA / NRS 19 / VISA): 4 µg/mL (≈ 2.76 µM)
- MIC ([3]; MRSA / NRS 21 / VISA): 4 µg/mL (≈ 2.76 µM)
- MIC ([3]; MRSA / NRS 22 / USA600 / VISA): 8 µg/mL (≈ 5.52 µM)
- MIC ([3]; MRSA / NRS 23 / VISA): 4 µg/mL (≈ 2.76 µM)
- MIC ([3]; MRSA / NRS 24 / VISA): 8 µg/mL (≈ 5.52 µM)
- MIC ([3]; MRSA / NRS 26): 2 µg/mL (≈ 1.38 µM)
- MIC ([3]; MRSA / NRS 27 / VISA): 4 µg/mL (≈ 2.76 µM)
- MIC ([3]; MRSA / NRS 29 / VISA): 4 µg/mL (≈ 2.76 µM)
- MIC ([3]; MRSA / NRS 37 / VISA): 4 µg/mL (≈ 2.76 µM)
- MIC ([3]; MRSA / NRS 54): 2 µg/mL (≈ 1.38 µM)
- MIC ([3]; MRSA / NRS 56 / VISA): 4 µg/mL (≈ 2.76 µM)
- MIC ([3]; MRSA / USA100 / VRSA): > 64 µg/mL
- MIC ([3]; MRSA / USA800 / VRSA): > 64 µg/mL
- MIC ([3]; MSSA): 1 µg/mL (≈ 0.69 µM)
- MIC ([3]; MSSA / NRS 12 / VISA): 4 µg/mL (≈ 2.76 µM)
- MIC ([3]; MSSA / NRS 13 / VISA): 4 µg/mL (≈ 2.76 µM)
- MIC ([3]; MSSA / NRS 14 / VISA): 4 µg/mL (≈ 2.76 µM)
- MIC ([3]; MSSA / NRS 17 / VISA): 8 µg/mL (≈ 5.52 µM)
- MIC ([3]; MSSA / NRS 28 / VISA): 4 µg/mL (≈ 2.76 µM)
- MIC ([3]; MSSA / NRS 52): 2 µg/mL (≈ 1.38 µM)
- MIC ([3]; MSSA / USA100 / VRSA): > 64 µg/mL
- potency on shift from pH 7.3 to 5.5 ([1]; S. aureus, in words): unaffected
- MIC [1, 6]: 2 µg/mL
- MIC [1, 7]: 1 µg/mL
- MIC [1, 8]: 8 µg/mL
- MIC [1, 9]: 8 µg/mL

Molecule: CC(=O)O[C@H]1C[C@@]2(C)[C@@H](C[C@@H](O)[C@H]3[C@@]4(C)CC[C@@H](O)[C@@H](C)[C@@H]4CC[C@@]32C)/C1=C(\CCC=C(C)C)C(=O)O [fusidic acid]
- Time-kill bacterial count ([2]; time 0 hour): 2.80E+05
- Time-kill bacterial count ([2]; time 3 hour): 7.80E+04
- Time-kill bacterial count ([2]; time 6 hour): 5.60E+04
- Time-kill bacterial count ([2]; time 12 hour): 1.40E+04
- Time-kill bacterial count ([2]; time 18 hour): 3.40E+03
- Time-kill bacterial count ([2]; time 24 hour): 1.40E+03
- Time-kill bacterial count ([2]; time 48 hour): 1.70E+04
- Colony numbers ([2]; time 0 h, Dilution 100): 145 and 132 and 137
- Colony numbers ([2]; time 3 h, Dilution 100): 47 and 39 and 31
- Colony numbers ([2]; time 6 h, Dilution 100): 31 and 21 and 32
- Colony numbers ([2]; time 12 h, Dilution 10): 81 and 58 and 73
- Colony numbers ([2]; time 18 h, Dilution 1): 223 and 160 and 130
- Colony numbers ([2]; time 24 h, Dilution 0.5): 163 and 86 and 158
- regrowth of S. aureus populations ([2]; within 48 hours, 10× MIC, in words): regrowth was observable
- Log CFU/Skin ([4]; Staphylococcus aureus USA300 (MRSA)): 4.49 Log CFU/Skin and 5.07 Log CFU/Skin and 4.98 Log CFU/Skin and 4.68 Log CFU/Skin and 3.36 Log CFU/Skin

Molecule: C/C(=C\C(=O)OCCCCCCCCC(=O)O)C[C@@H]1OC[C@H](C[C@@H]2O[C@H]2[C@@H](C)[C@H](C)O)[C@@H](O)[C@H]1O [mupirocin, reference compound]
- Log CFU/Skin ([4]; Staphylococcus aureus ECL 2963646 (VRSA)): 5.07 Log CFU/Skin and 5.72 Log CFU/Skin and 5.58 Log CFU/Skin and 5.64 Log CFU/Skin and 4.16 Log CFU/Skin
- Log CFU/Skin ([4]; Staphylococcus aureus Mu50 ATCC 700699 (VISA)): 3.89 Log CFU/Skin and 4.45 Log CFU/Skin and 5.25 Log CFU/Skin and 3.85 Log CFU/Skin and 4.43 Log CFU/Skin

Molecule: Melittin [reference compound]
- Hemolytic Index [5]: 248
- LDH activity [5]: 525 Unit/mL
